Patent publication US20080255155A1, “KINASE INHIBITORS AND USES THEREOF” (priority 2006, published 2008)

What was measured:
[1] = target: T1, recombinant human c-Met/HGF receptor (Homo sapiens, UniProt P08581); assay: In vitro receptor tyrosine kinase assay, c-Met (DELFIA); format: biochemical; conditions: ATP 10 uM, enzyme 25 nM; read-out: Potency in enzyme assays Cmet
T1 construct: His tag; made in house; host or cells: Hi-5 cells (Trichoplusia ni), recombinant baculovirus
Text: (§1) These tests measure the ability of compounds to inhibit the enzymatic activity of recombinant human c-Met/HGF receptor and VEGF receptor enzymatic activity.
A 1.3-kb cDNA corresponding to the intracellular domain of c-Met or c-Met IC (Genbank accession number NP000236-1 amino acid […]) is cloned into the BamHI/XhoI sites of the pBlueBacHis2A vector (Invitrogen) for the production of a histidine-tagged version of that enzyme. This construct is used to generate recombinant baculovirus using the Bac-N-Blue™ system according to the manufacturer's instructions (Invitrogen).
(§2) The c-Met IC protein is expressed in Hi-5 cells (Trichoplusia Ni) upon infection with recombinant baculovirus construct. Briefly, Hi-5 cells grown in suspension and maintained in serum-free medium (Sf900 II supplemented with gentamycin) at a cell density of about 2×10^6 cells/ml are infected with the above-mentioned viruses at a multiplicity of infection (MOI) of 0.2 during 72 hours at 27° C. with agitation at 120 rpm on a rotary shaker. Infected cells are harvested by centrifugation at 398 g for 15 min. Cell pellets are frozen at −80° C. until purification is performed.
All steps described in cell extraction and purification are performed at 4° C. Frozen Hi-5 cell pellets infected with the C-Met IC recombinant baculovirus are thawed and gently resuspended in Buffer A (20 mM Tris pH 8.0, 10% glycerol, 1 μg/ml pepstatin, 2 μg/ml Aprotinin and leupeptin, 50 μg/ml PMSF, 50 μg/ml TLCK and 10 μM E64, 0.5 mM DTT and 1 mM Levamisole) using 3 ml of buffer per gram of cells. The suspension is Dounce homogenized after which it is centrifuged at 22500 g, 30 min., 4° C. The supernatant (cell extract) is used as starting material for purification of c-Met IC.
The supernatant is loaded onto a QsepharoseFF column (Amersham Biosciences) equilibrated with Buffer B (20 mM Tris pH 8.0, 10% glycerol) supplemented with 0.05M NaCl. Following a ten column volume (CV) wash with equilibration buffer, bound proteins are eluted with a 5 CV salt linear gradient spanning from 0.05 to 1M NaCl in Buffer B. Typically, the conductivity of selected fractions rank between 6.5 and 37 mS/cm. This Qsepharose eluate has an estimated NaCl concentration of 0.33M and is supplemented with a 5M NaCl solution in order to increase NaCl concentration at 0.5M and also with a 5M Imidazole (pH 8.0) solution to achieve a final imidazole concentration of 15 mM. This material is loaded onto a HisTrap affinity column (GE Healthcare) equilibrated with Buffer C (50 mM NaPO4 pH 8.0, 0.5M NaCl, 10% glycerol) supplemented with 15 mM imidazole. After a 10 CV wash with equilibration buffer and an 8 CV wash with buffer C+40 mM imidazole, bound proteins are eluted with an 8 CV linear gradient (15 to 500 mM) of imidazole in buffer C. C-Met IC enriched fractions from this chromatography step are pooled based on SDS-PAGE analysis. This pool of enzyme undergoes buffer exchange using PD-10 column (GE Healthcare) against buffer D (25 mM HEPES pH 7.5, 0.1M NaCl, 10% glycerol and 2 mM β-mercaptoethanol). Final C-Met IC protein preparations concentrations are about 0.5 mg/ml with purity approximating 80%. Purified c-Met IC protein stocks are supplemented with BSA at 1 mg/ml, aliquoted and frozen at −80° C. prior to use in enzymatic assay.
Inhibition of c-Met/HGF receptor and VEGFR/KDR is measured in a DELFIA™ assay (Perkin Elmer). The substrate poly(Glu4,Tyr) is immobilized onto black high-binding polystyrene 96-well plates. The coated plates are washed and stored at 4° C. During the assay, enzymes are pre-incubated with inhibitor and Mg-ATP on ice in polypropylene 96-well plates for 4 minutes, and then transferred to the coated plates. The subsequent kinase reaction takes place at 30° C. for 10-30 minutes. ATP concentrations in the assay are 10 uM for C-Met (5× the Km) and 0.6 uM for VEGFR/KDR (2× the Km). Enzyme concentration is 25 nM (C-Met) or 5 nM (VEGFR/KDR). […]

VEGF receptor KDR = target: T2, VEGF receptor KDR (Homo sapiens, UniProt P35968); assay: In vitro receptor tyrosine kinase assay, VEGF receptor KDR (DELFIA); format: biochemical; conditions: ATP 0.6 uM, enzyme 5 nM; read-out: Potency in enzyme assays VEGF
T2 construct: made in house; host or cells: Sf9 cells (Spodoptera frugiperda), recombinant baculovirus
Text: as §1
In the case of VEGF receptor KDR a 1.6-kb cDNA corresponding to the catalytic domain of VEGFR2 or KDR (Genbank accession number AF035121 amino acid 806 to 1356) is cloned into the Pst I site of the pDEST20 Gateway vector (Invitrogen) for the production of a GST-tagged version of that enzyme. This construct is used to generate recombinant baculovirus using the Bac-to-Bac system according to the manufacturer's instructions (Invitrogen).
as §2, with “GST-VEGFR2806-1356” for “c-Met IC”, “Sf9” for “Hi-5”, “(Spodoptera frugiperda)” for “(Trichoplusia Ni)”, “0.1” for “0.2”
All steps described in cell extraction and purification are performed at 4° C. Frozen Sf9 cell pellets infected with the GST-VEGFR2806-1356 recombinant baculovirus re thawed and gently resuspended in Buffer A (PBS pH 7.3 supplemented with 1 μg/ml pepstatin, 2 μg/ml Aprotinin and leupeptin, 50 μg/ml PMSF, 50 μg/ml TLCK and 10 μM E64 and 0.5 mM DTT) using 3 ml of buffer per gram of cells. Suspension is Dounce homogenized and 1% Triton X-100 is added to the homogenate after which it is centrifuged at 22500 g, 30 min., 4° C. The supernatant (cell extract) is used as starting material for purification of GST-VEGFR2806-1356.
The supernatant is loaded onto a GST-agarose column (Sigma) equilibrated with PBS pH 7.3. Following a four column volume (CV) wash with PBS pH 7.3+1% Triton X-100 and 4 CV wash with buffer B (50 mM Tris pH 8.0, 20% glycerol and 100 mM NaCl), bound proteins are step eluted with 5 CV of buffer B supplemented with 5 mM DTT and 15 mM glutathion. GST-VEGFR2806-1356 enriched fractions from this chromatography step are pooled based on U.V. trace i.e. fractions with high O.D^-280- Final GST-VEGFR2806-1356 protein preparations concentrations are about 0.7 mg/ml with purity approximating 70%. Purified GST-VEGFR2806-1356 protein stocks are aliquoted and frozen at −80° C. prior to use in enzymatic assay.
Inhibition of c-Met/HGF receptor and VEGFR/KDR is measured in a DELFIA™ assay (Perkin Elmer). The substrate poly(Glu4,Tyr) is immobilized onto black high-binding polystyrene 96-well plates. The coated plates are washed and stored at 4° C. During the assay, enzymes are pre-incubated with inhibitor and Mg-ATP on ice in polypropylene 96-well plates for 4 minutes, and then transferred to the coated plates. The subsequent kinase reaction takes place at 30° C. for 10-30 minutes. ATP concentrations in the assay are 10 uM for C-Met (5× the Km) and 0.6 uM for VEGFR/KDR (2× the Km). Enzyme concentration is 25 nM (C-Met) or 5 nM (VEGFR/KDR). After incubation, the kinase reactions are quenched with EDTA and the plates are washed. Phosphorylated product is detected by incubation with Europium-labeled anti-phosphotyrosine MoAb. After washing the plates, bound MoAb is detected by time-resolved fluorescence in a Gemini SpectraMax reader (Molecular Devices). Compounds are evaluated over a range of concentrations and IC50's (concentration of compounds giving 50% inhibition of enzymatic activity) are determined.

A549 = A549 wound healing inhibition; conditions: Homo sapiens; A549 cells; read-out: Potency in cell-based assays A549 wound healing inhibition
DU145 = DU145 scattering inhibition; conditions: Homo sapiens, DU-145; DU145 cells; read-out: Potency in cell-based assays DU145 scattering inhibition

T1 sequence (P08581 1078-1337): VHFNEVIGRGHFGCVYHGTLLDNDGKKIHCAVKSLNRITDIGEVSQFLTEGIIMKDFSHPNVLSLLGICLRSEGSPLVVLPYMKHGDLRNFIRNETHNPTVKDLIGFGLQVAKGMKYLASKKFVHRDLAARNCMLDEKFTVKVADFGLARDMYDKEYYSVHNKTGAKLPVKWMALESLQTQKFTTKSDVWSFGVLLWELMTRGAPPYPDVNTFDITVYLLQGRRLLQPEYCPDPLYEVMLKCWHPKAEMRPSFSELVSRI
T2 sequence (P35968 806-1356): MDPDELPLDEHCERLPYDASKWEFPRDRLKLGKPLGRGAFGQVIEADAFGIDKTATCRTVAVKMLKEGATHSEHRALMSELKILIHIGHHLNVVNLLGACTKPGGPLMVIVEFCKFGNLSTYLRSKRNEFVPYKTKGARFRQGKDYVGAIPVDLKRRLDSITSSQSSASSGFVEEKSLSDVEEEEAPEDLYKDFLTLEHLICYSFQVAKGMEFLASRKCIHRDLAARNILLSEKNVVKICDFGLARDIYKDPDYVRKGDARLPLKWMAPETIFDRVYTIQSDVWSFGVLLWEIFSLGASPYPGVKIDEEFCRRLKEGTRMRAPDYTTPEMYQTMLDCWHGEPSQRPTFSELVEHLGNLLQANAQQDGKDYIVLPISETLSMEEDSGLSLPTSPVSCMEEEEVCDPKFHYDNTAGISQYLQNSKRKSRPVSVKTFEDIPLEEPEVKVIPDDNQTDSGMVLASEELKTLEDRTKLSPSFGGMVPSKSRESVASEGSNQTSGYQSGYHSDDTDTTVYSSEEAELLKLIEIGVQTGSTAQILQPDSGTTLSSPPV

| Compound | IC50 [1] | IC50 (VEGF receptor KDR) | IC50 (A549) | IC50 (DU145) |
| --- | --- | --- | --- | --- |
| CNC(=O)c1cc(Oc2ccc(NC(=O)N3CCN(c4ccc(F)cc4)C3=O)cc2F)ccn1 [Compound 87b, 4-(2-fluoro-4-(3-(4-fluorophenyl)-2-oxoimidazolidine-1-carboxamido)phenoxy)-N-methylpicolinamide] | 500 to 1000 nM | ≥ 1000 nM | 1000 to 5000 nM | 1000 to 5000 nM |
| O=C(NCCN1CCOCC1)c1cc(Oc2ccc(NC(=O)N3CCN(c4ccccc4)C3=O)cc2F)ccn1 [Compound 87c] | ≥ 1000 nM | ≥ 1000 nM | > 10000 nM | > 10000 nM |
